Reference: patent US11672786B2, “Methods of treating diseases associated with repeat instability” (The Hospital for Sick Children, priority 2016, dated 2023)
Where “and” joins values, the source holds several entries; their conditions need not be identical. Identical values can stand only once.

Tests used:
[1] = test system: Huntington's disease R6/2 transgenic mice, striatum; test: stereotaxic intra-striatal injections into R6/2 mice, CAG length Genescan analysis and instability index; assay type: in vivo, mouse
Protocol: This calculation corrects background using a relative height threshold and normalizes data efficiently, generating an “instability index” that represents the mean CAG length change from the main allele per cell in a population of cells: greater indices reflect greater expansions, lower indices-lower expansions.
Mouse handling and experimental procedures were conducted in accordance with the Osaka University guidelines for the welfare of animals. A single drug application involved six separate stereotactic injections, three injections of drug or saline into three different striatal regions of either the left or right striatum, respectively (outlined in FIG. 24). Under sterile conditions, 6-week-old R6/2 mice were anesthetized with 50 mg/kg pentobarbital sodium, and stereotaxically injected with 5 μl of saline (right side) or 500 μM NA dissolved in saline (left side) into three different sites of the striatum. The mice received injections once or twice bi-weekly, or weekly for 4 consecutive weeks. Stereotaxic injections were delivered to three sites within the striatum with the following coordinates: (anterior-posterior (AP)=0.0 mm, medial-lateral (ML)=1.5 mm from bregma, dorsal-ventral (DV)=2.5 mm below the dural surface; AP=1.0 mm, ML=1.5 mm, DV=2.5 mm; and AP=0.5 mm, ML=1.5 mm, DV=2.5 mm), using a 10-μl Hamilton microsyringe at a rate of 0.5 μL/min. Refer to FIG. 24 outlining dosing regimen. […] The control of our NA treatment is therefore the contralateral side of the striatum of each mouse. Both right and left striatum were assessed for repeat length at the HD CAG transgene and at endogenous, long CAG tracts. For the mice treated four times, DNAs from the tail prior to and following NA administration, as well as left and right frontal cortex and left and right cerebellum were harvested.
At 4 weeks after the first injection, DNA was isolated from mouse brain tissue as previously described (Nakamori et al. 2009, Neuromuscul. Disord., 19:759-62). PCR was performed as described previously (Tome et al., 2013, PLoS Genet., 9:e1003280), and PCR products were sized on an ABI310 Gene Analyser using […] 3.1 software (Life Technologies).
The procedure for instability index calculation was done as previously described (Lee et al., 2010, BMC Syst. Biol., 4:29) and is illustrated and outlined in FIG. 27A.

[2] = test system: HD fibroblasts (CAG)43; test: small-pool PCR across HD repeat tract, HD primary fibroblasts GM02191; assay type: cell-based, human; settings: 40 days; for % Contraction / % Expansion / % Unchanged / Average repeat size: 50 uM NA
Protocol: The construction of the HT1080-(CAG)850 cell model was described previously (Sathasivam et al., 1997, Hum. Genet., 99:692-5). Briefly, HT1080 (ATCC) human fibrosarcoma cells were co-transfected with a plasmid (LC15-R) containing 800-850 (CTG)●(CAG) repeats (Nakatani et al., 2005, Nat. Chem. Biol., 1:39-43) and a plasmid encoding PhiC31 integrase. Transfection was performed with a Nucleofector (Lonza, Basel, Switzerland), and stably transfected clones were selected with puromycin. […] The HT1080-non-transcribing (CAG)850 cell model was established by transfecting a plasmid modified from pLC16 by inserting an additional SV40 polyadenylation signal downstream of the repeats (in addition to the original polyadenylation signals located upstream of the repeats), so that CAG/CTG repeats are floxed by transcription-terminator elements. The AttB-PhiC31 system has been widely used for single copy integration. […] The HT1080 model cells and an HD primary fibroblast cell line, GM09197 (Coriell Biorepository) with a large expanded allele of 180 CAG repeats and a non-expanded allele of 23 repeats (Sathasivam et al., 1997, Hum. Genet., 99:[…]), the HD primary fibroblast cell line, GM02191 (Coreill Biorepository) with an expanded allele of 43 CAG repeats and a non-expanded allele of 19 repeats, were cultured at 37° C. with 5% CO2 in Dulbecco's modified Eagle's medium supplemented with 10% fetal bovine serum and 1% penicillin/streptomycin. Cells were treated with or without continuous exposure to 50-μM NA for 30 days (HT1080 cells) or for 40 days (fibroblast cells). For experiments on non-proliferating cells, HT1080 cells were grown to confluence and then treated for the same period. WST-1 assay was performed according to the manufacturer's instructions (Roche, Basel, Switzerland). All cell lines were tested to be free of Mycoplasma. Three biological replicates were performed for each experiment.
Genomic DNA was extracted from HT1080-(CAG)850 clones and HD primary fibroblasts using the Gentra Puregene Cell Kit (Qiagen, Valencia, Calif.). The expanded (CTG)●(CAG) repeats were sized by small-pool PCR (sp-PCR) followed by Southern blot as described previously (Sathasivam et al., 1997, Hum. Genet., 99:692-5). For HT1080 models, small-pool PCR (spPCR) was performed with the input of 1.4-1.7 genome equivalents. The repeat size difference in the models is, at most, 3000 base-pairs, therefore, being strictly conservative, a bias toward amplifying the shorter allele can be possible, even under optimized PCR conditions described herein. For HD primary fibroblasts, sp-PCR & Southern blots were performed as described previously with slight modifications (Tome et al., 2013, PLoS Genet., 9:e1003280). Briefly, the PCR primers listed in Table 1 were used, and blots were hybridized with a DIG-labeled (CAG)7 locked nucleic acid probe (Nakamori et al. 2009, Neuromuscul. Disord., 19:759-62). At least 50 alleles were analyzed for each of the three experiments (more than 150 alleles for a total study). Repeat analyses are summarized in Table 2, compiled from complete small-pool-PCR datasets for each repetition of each experiment. For the histograms in FIGS. 4D, 4E, 10, 11, 5B, 5D, 5E, 14 and 15B, the Y-axis, “% of repeat population” was calculated by determining the proportion of >50 individual small-pool PCR reactions across the CAG repeat tract, that harbored a certain size of repeat product with a certain length. Cell clones were grown 30 or 40 days with or without NA (see, for example, Sathasivam et al., 1997, Hum. Genet., 99:692-5). Specifically, the histograms of repeat length distributions were from at least two different cell clones. Length distributions were determined as follows: Small-pool PCR followed by Southern blot for analysis of CAG/CTG repeat length.

[3] = test system: r(CAG)9; settings: r(CAG)9 immobilization 524 RU; cited from earlier work
[4] = single experiments Ex 1-3, cut-off ±10 repeats

naphthyridine-azaquinolone
instability index of striatum ([1]; 1, 2 and 4 administrations): progressively reduced
effect on expanded repeat relative to saline-injected contralateral striatum ([1]; 6-week-old R6/2 mice, repeated intra-striatal injections over four weeks): led to seeming contractions of the expanded repeat
extrapolated repeat contraction in an HD-affected human ([1]; extrapolation from mice, treatments spanning one year): 5-25 repeats
difference of main peak CAG lengths saline- versus NA-treated versus tail ([1]; four injections, 500 μM NA intra-striatal): 4-7 CAG units
CAG length heterogeneity in cerebral cortex and cerebellum (non-injected tissues) ([1]; intra-striatal injections, left versus right side): identical patterns of CAG length heterogeneity in the right and left sides
rate of contractions in striatal neurons ([1]; mice with about 150 CAG repeats, four-week period of NA treatment, 500 μM intra-striatal): ~0.5 repeats lost/week
lowest repeat length reached by contractions ([2]; 50 μM NA, HD disease threshold 35 units): ≥ 20 repeats
% Contraction ([2]; Total): 25.3%
% Expansion ([2]; Total): 4.9%
% Unchanged ([2]; Total): 69.8%
Average repeat size ([2]; Total): 40.7 number of repeats
% Unchanged ([2]; single experiments Ex 1-3): 67.0% and 69.2% and 73.2%
Average repeat size ([2]; single experiments Ex 1-3): 40.6 number of repeats and 40.4 number of repeats and 41.0 number of repeats
% Contraction [2, 4]: 28.4% and 25.2% and 22.3%
% Expansion [2, 4]: 4.6% and 5.6% and 4.5%
changes in the SPR intensity on NA binding [3]: 8 RU
